This is an account of results in PubChem BioAssay (NCI).

Several values for one entry are separate records, joined by “and”; a condition that tells them apart may be missing. Equal values may be shown once.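 Dose response: 5 concentrations. Exposure: 48 h. Format: 96-well plates. Endpoint: linear interpolation; highest concentration if not reached. The concentration for 50% growth inhibition is given as GI50. TGI marks complete inhibition of growth.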

Among the test systems are IGROV1 ovarian; SF-295 CNS; MCF7 breast; CCRF-CEM leukemia; SNB-75 CNS; A498 renal; TK-10 renal; UACC-257 melanoma; COLO 205 colon; SK-MEL-2 melanoma.
What all share (experiment): NCI anticancer screen, dose series, 48 h

With `O=C1CC(CC(OCc2ccccc2)C(OCc2ccccc2)C(COCc2ccccc2)OCc2ccccc2)CC(=O)N1` (centres undefined), the GI50 was > 100 µM and 17.2 µM with IGROV1 ovarian; > 100 µM and 11.2 µM in the assay on SF-295 CNS; > 100 µM and 21.7 µM in the assay on A498 renal; > 100 µM and 16.3 µM with UACC-257 melanoma. For the same compound, the TGI in the assay with IGROV1 ovarian is > 100 µM and 33.7 µM; in the assay on SF-295 CNS, > 100 µM and 28.4 µM; in the assay on MCF7 breast, > 100 µM and 31.4 µM; in the assay with CCRF-CEM leukemia, above 100 µM; with SNB-75 CNS, > 100 µM and 75.2 µM; in the assay with A498 renal, > 100 µM and 89 µM. The TGI is above 100 µM in the assay on TK-10 renal; > 100 µM and 36.4 µM in the assay on UACC-257 melanoma.

For `NC(=O)c1cc(Br)ccc1NC(=O)/C=C/c1ccccc1`, the GI50 is 2.35 µM with IGROV1 ovarian; 1.33 µM with SF-295 CNS; 0.757 µM with MCF7 breast; 803 nM in the assay with CCRF-CEM leukemia; 2160 nM in the assay on SNB-75 CNS; 1.66 µM with A498 renal. The GI50 was 1230 nM in the assay on COLO 205 colon, 5.93 µM in the assay on TK-10 renal and 24.9 µM with UACC-257 melanoma. The TGI with IGROV1 ovarian is above 100 µM; in the assay with SF-295 CNS, above 20.3 µM; with MCF7 breast, above 100 µM; in the assay with CCRF-CEM leukemia it was 9.97 µM; in the assay on SNB-75 CNS, 10.7 µM; with A498 renal, 11.7 µM. In addition, the TGI in the assay with COLO 205 colon was above 39.5 µM; in the assay with TK-10 renal, 39.3 µM; in the assay on UACC-257 melanoma it was above 100 µM.

Turning to `CC(=O)OCCCC#CC#Cc1cccc(=O)o1`, the GI50 in the assay with IGROV1 ovarian was 18.7 µM; in the assay on SF-295 CNS, 17.8 µM; in the assay on SK-MEL-2 melanoma, 40 µM; with MCF7 breast, 20.3 µM; in the assay on SNB-75 CNS, 29100 nM; in the assay on A498 renal it was 23.9 µM. For the same compound, the values for the GI50 with COLO 205 colon, in the assay with TK-10 renal and in the assay on UACC-257 melanoma were 19400 nM, 13 µM and 23.8 µM, respectively. The TGI was above 100 µM in the assay with IGROV1 ovarian; 32.7 µM in the assay on SF-295 CNS; above 100 µM in the assay with SK-MEL-2 melanoma; 43.5 µM with MCF7 breast; 67.2 µM with SNB-75 CNS; 39.4 µM with A498 renal. Moreover, the TGI worked out at 41.8 µM with COLO 205 colon, 26.4 µM in the assay on TK-10 renal and 55.6 µM in the assay with UACC-257 melanoma.

Take `CCNCCNc1cc(-c2ccc(C(F)(F)F)cc2)c(C#N)c2nc3cc(Cl)c(Cl)cc3n12`: the GI50 in the assay on SF-295 CNS is 1.73 µM; in the assay with MCF7 breast, 0.168 µM; with SNB-75 CNS it was 1380 nM; in the assay with A498 renal it was 2 µM; in the assay with COLO 205 colon, 1680 nM; in the assay with TK-10 renal it was 2.38 µM. Also, in the assay with UACC-257 melanoma, the GI50 is 1.9 µM. Further, the TGI is 3.2 µM with SF-295 CNS; 0.352 µM in the assay with MCF7 breast; 2.69 µM with SNB-75 CNS; 3.6 µM in the assay on A498 renal; 3.22 µM with COLO 205 colon; 3.87 µM in the assay on TK-10 renal. Also, the TGI with UACC-257 melanoma was 3.39 µM.

Regarding `CCCCCCCCCCCCCCCCN(CC)CC`, the GI50 in the assay on IGROV1 ovarian is 1.79 µM; in the assay on SF-295 CNS, 1.73 µM; with SK-MEL-2 melanoma, 3.01 µM; in the assay on MCF7 breast, 2.33 µM; in the assay on SNB-75 CNS, 2390 nM; in the assay on A498 renal it was 17.9 µM. In addition, the GI50 was 2010 nM with COLO 205 colon, 1.71 µM in the assay on TK-10 renal and 1.99 µM with UACC-257 melanoma. For the same compound, the TGI stood at 3.36 µM in the assay on IGROV1 ovarian; 3.55 µM in the assay with SF-295 CNS; 8.9 µM with SK-MEL-2 melanoma; 6.09 µM in the assay with MCF7 breast; 9.03 µM in the assay on SNB-75 CNS; 37.2 µM in the assay with A498 renal. In addition, the TGI in the assay on COLO 205 colon was determined as 3.82 µM; with TK-10 renal it was 3.4 µM; in the assay on UACC-257 melanoma, 4.98 µM.

On to `COc1ccc(NC(=O)c2ccc(NC3=C(Cl)C(=O)N(Cc4ccccc4)C3=O)cc2)c(OC)c1`, for which the GI50 with IGROV1 ovarian is 10.8 µM; in the assay with SF-295 CNS, 25.7 µM; with SK-MEL-2 melanoma, 25.7 µM; with MCF7 breast it was 33.7 µM; in the assay on SNB-75 CNS, 47100 nM; with A498 renal, 61.1 µM. Also, the GI50 in the assay with COLO 205 colon was 44400 nM; in the assay with TK-10 renal, 22.8 µM; in the assay on UACC-257 melanoma, 47 µM. In addition, the TGI was 73.8 µM in the assay on IGROV1 ovarian; 99.1 µM in the assay with SF-295 CNS; 68.9 µM in the assay with SK-MEL-2 melanoma; above 100 µM with MCF7 breast; above 100 µM in the assay on SNB-75 CNS; above 100 µM in the assay with A498 renal. The TGI in the assay on COLO 205 colon, with TK-10 renal and in the assay on UACC-257 melanoma was above 100 µM throughout.

With `COc1ccc(OC)c(/C=C/c2ccnc3ccccc23)c1`, the TGI in the assay with IGROV1 ovarian came out at 17.4 µM; in the assay with SF-295 CNS, 4.89 µM; in the assay on MCF7 breast, 17.4 µM; in the assay on CCRF-CEM leukemia it was 5.91 µM; in the assay on SNB-75 CNS, 0.977 µM; in the assay on A498 renal, 3.8 µM. The TGI worked out at 0.863 µM in the assay on COLO 205 colon, 16 µM in the assay with TK-10 renal and 18.8 µM with UACC-257 melanoma.

Take `C/C=C(\C)C(=O)O[C@H]1C=CC(=O)O[C@H]1COC(=O)[C@H](C)O`: the GI50 in the assay with IGROV1 ovarian was 10.2 µM; in the assay on SF-295 CNS it was 13.1 µM; in the assay with SK-MEL-2 melanoma it was 15.3 µM; in the assay with MCF7 breast it was 3.4 µM; in the assay on SNB-75 CNS it was 6950 nM; in the assay on A498 renal, 15.7 µM. Moreover, the GI50 in the assay on COLO 205 colon is 3070 nM; with TK-10 renal, 10.8 µM; in the assay with UACC-257 melanoma, 14.7 µM. The TGI stood at 33.7 µM with IGROV1 ovarian; 28.9 µM with SF-295 CNS; 41.4 µM with SK-MEL-2 melanoma; 14.1 µM with MCF7 breast; 20.9 µM with SNB-75 CNS; 31.4 µM with A498 renal. Besides, the values for the TGI in the assay with COLO 205 colon, with TK-10 renal and with UACC-257 melanoma were 15.5 µM, 24.3 µM and 30.8 µM, respectively.

In the case of `COc1ccc2nc3cccc([N+](=O)[O-])c3c(NC(C)CN(C)C)c2c1` (centres undefined), the GI50 is 1.67 µM in the assay with IGROV1 ovarian; 2.37 µM in the assay with SF-295 CNS; 1.17 µM in the assay with MCF7 breast; 2210 nM in the assay with CCRF-CEM leukemia; 2250 nM with SNB-75 CNS; 2.09 µM in the assay with A498 renal. Further, the GI50 with COLO 205 colon was 1840 nM; in the assay with TK-10 renal, 2.2 µM; in the assay with UACC-257 melanoma, 2.67 µM. Further, the TGI with IGROV1 ovarian turned out to be 5.54 µM; with SF-295 CNS, 10.1 µM; in the assay on MCF7 breast it was 4.36 µM; with CCRF-CEM leukemia, 7.62 µM; in the assay on SNB-75 CNS it was 5.55 µM; with A498 renal it was 4.59 µM. Besides, the TGI with COLO 205 colon was 6.89 µM; in the assay with TK-10 renal it was 9.59 µM; in the assay on UACC-257 melanoma, 7.02 µM.

For `C=C1C(=O)C2=CC1CCC(=O)C1(C)CCC(OC(C)=O)C(C)(C)C1CC2O` (centres undefined), the TGI in the assay on IGROV1 ovarian was found to be 14.1 µM; with SF-295 CNS, 25.6 µM; with SK-MEL-2 melanoma it was 25.6 µM; in the assay on MCF7 breast, 3.84 µM; in the assay on SNB-75 CNS, 24.8 µM; with A498 renal, 12.6 µM. In addition, the TGI with COLO 205 colon is 2.47 µM; in the assay with TK-10 renal it was 26.5 µM; in the assay with UACC-257 melanoma, 17 µM.

Consider `Nc1nn(C(=O)Nc2c(F)cccc2F)c2ccccc12`, for which the GI50 with IGROV1 ovarian was 7.7 µM; in the assay on SF-295 CNS, 54.8 µM; with SK-MEL-2 melanoma it was above 100 µM; with MCF7 breast, 60 µM; in the assay with A498 renal, 31.4 µM; in the assay with COLO 205 colon it was above 100000 nM. Besides, the GI50 in the assay with TK-10 renal is above 100 µM; in the assay on UACC-257 melanoma, 71.7 µM. Also, the TGI with IGROV1 ovarian, with SF-295 CNS, in the assay on SK-MEL-2 melanoma, with MCF7 breast, in the assay on A498 renal and in the assay on COLO 205 colon was above 100 µM in each case. The TGI in the assay with TK-10 renal and in the assay on UACC-257 melanoma was above 100 µM throughout.

As for `CN1C(=O)C2(c3ccccc31)C1CC3C(CO1)C1C2C3(CO)CN1C#N` (centres undefined), the TGI in the assay with IGROV1 ovarian, in the assay with SF-295 CNS, in the assay on SK-MEL-2 melanoma, in the assay with MCF7 breast, in the assay on CCRF-CEM leukemia and with SNB-75 CNS was above 100 µM in each case. Moreover, the TGI in the assay with COLO 205 colon, in the assay on TK-10 renal and in the assay on UACC-257 melanoma was above 100 µM in each case.

As to `O=C(O)Cc1ccc(N=Nc2c(O)c(C(=O)O)cc3ccccc23)cc1`, the TGI in the assay on IGROV1 ovarian, in the assay on SF-295 CNS, in the assay with SK-MEL-2 melanoma, in the assay with MCF7 breast, in the assay with CCRF-CEM leukemia and in the assay on SNB-75 CNS was above 100 µM throughout. In addition, the TGI in the assay on COLO 205 colon, with TK-10 renal and in the assay with UACC-257 melanoma was above 100 µM each time.

With `COc1cc(/C=C/C(=O)c2c(-c3ccc(F)cc3)nc3sc(C)nn23)cc(OC)c1OC`, the GI50 in the assay on IGROV1 ovarian is 2.69 µM; in the assay on SF-295 CNS it was 4.03 µM; with MCF7 breast it was 3.03 µM; in the assay on CCRF-CEM leukemia it was 2000 nM; with SNB-75 CNS it was 2670 nM; with A498 renal, 2.3 µM. Further, the GI50 in the assay on COLO 205 colon was 1980 nM; in the assay with TK-10 renal it was 2.92 µM; in the assay with UACC-257 melanoma it was 4.18 µM. The TGI with IGROV1 ovarian turned out to be 6.71 µM; in the assay on SF-295 CNS, 15.9 µM; in the assay with MCF7 breast, 16.5 µM; in the assay on CCRF-CEM leukemia, 5.95 µM; with SNB-75 CNS, 14.6 µM; in the assay with A498 renal, 7.23 µM. Also, the results for the TGI in the assay on COLO 205 colon, in the assay on TK-10 renal and in the assay on UACC-257 melanoma were 3.77 µM, 8.14 µM and 16.5 µM, respectively.
